# Assays:
# Format in all cases: biochemical
# [1] = Anti-oxidant assay (DPPH radical scavenging activity)
# [2] = Hydroxyl radical scavenging activity; conditions: for TBARS Inhibition (%): Table 6 (hydroxyl radical scavenging)
# [3] = Lipid peroxidation (TBARS) inhibition assay; conditions: for TBARS Inhibition (%): Table 7
structure (smiles),measurement,setting,value
"O=C1O[C@H]([C@@H](O)CO)C(O)=C1O [Ascorbic Acid, ascorbic acid]",DPPH radical inhibition (%),[1]; Conc. 3.125 μl/ml,29.93%
same,DPPH radical inhibition (%),[1]; Conc. 6.25 μl/ml,52.42%
same,DPPH radical inhibition (%),[1]; Conc. 12.5 μl/ml,71.28%
same,DPPH radical inhibition (%),[1]; Conc. 25 μl/ml,87.88%
same,DPPH radical inhibition (%),[1]; Conc. 50 μl/ml,92.05%
same,DPPH radical inhibition (%),[1]; Conc. 100 μl/ml,95.01%
same,DPPH radical inhibition (%),[1]; Conc. 200 μl/ml,29.93%
same,"Inhibitory concentration [IC50], DPPH",[1]; from graph of % inhibition vs concentration,17.30 µg/mL
same,"Inhibitory concentration [IC50], hydroxyl radical",[2],30.83 µg/mL
same,TBARS Inhibition (%),[2]; Conc. 6.25 μl/ml,35.27%
same,TBARS Inhibition (%),[2]; Conc. 12.5 μl/ml,42.80%
same,TBARS Inhibition (%),[2]; Conc. 25 μl/ml,53.76%
same,TBARS Inhibition (%),[2]; Conc. 50 μl/ml,64.72%
same,TBARS Inhibition (%),[2]; Conc. 100 μl/ml,64.43%
same,TBARS Inhibition (%),[2]; Conc. 200 μl/ml,76.71%
same,"Inhibitory concentration [IC50], lipid peroxidation (TBARS)",[3],20.32 µg/mL
same,TBARS Inhibition (%),[3]; Conc. 6.25 μl/ml,36.0%
same,TBARS Inhibition (%),[3]; Conc. 12.5 μl/ml,47.69%
same,TBARS Inhibition (%),[3]; Conc. 25 μl/ml,54.76%
same,TBARS Inhibition (%),[3]; Conc. 50 μl/ml,62.15%
same,TBARS Inhibition (%),[3]; Conc. 100 μl/ml,68.92%
same,TBARS Inhibition (%),[3]; Conc. 200 μl/ml,72.61%

# Source: patent US20230134228A1, “SYNERGISTIC HERBAL COMPOSITION AS A BROAD-SPECTRUM PROPHYLACTIC MAJOR AND METHOD TO PREPARE THE SAME” (priority 2020, published 2023)
